What was measured:
[1] = tested on: man; settings: in man, 0.1 μg per site; cited from earlier work
[2] = biological target: T1, PAF Receptor (Oryctolagus cuniculus, UniProt G1TEI7); experiment: % Inhibition of PAF Receptor (published bioassay, Table I); assay type: binding
T1 construct: from tissue
Text: See. T. Y. Shen et al., Proc. Nat. Acad. Sci., U.S.A., 82, 672 (1985); and S. B. Hwang et al., Biochem., 22, 4756 (1983).
% Inhibition of PAF Receptor by the Compounds of […]

T1 sequence (G1TEI7 1-342): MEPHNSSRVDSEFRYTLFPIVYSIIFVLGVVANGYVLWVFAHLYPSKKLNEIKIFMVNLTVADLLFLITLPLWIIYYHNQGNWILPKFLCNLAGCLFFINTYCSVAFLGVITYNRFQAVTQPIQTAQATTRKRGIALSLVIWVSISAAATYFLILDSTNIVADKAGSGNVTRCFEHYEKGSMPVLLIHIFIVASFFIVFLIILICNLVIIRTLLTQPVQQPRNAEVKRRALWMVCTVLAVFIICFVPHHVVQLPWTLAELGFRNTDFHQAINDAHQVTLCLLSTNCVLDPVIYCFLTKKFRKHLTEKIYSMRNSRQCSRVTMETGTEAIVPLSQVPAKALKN

inhibition at 0.03 µM ([2]; Dose 0.03 μM) [%] | inhibition at 0.1 µM ([2]; Dose 0.1 μM) [%] | inhibition at 0.3 µM [2] [%] | inhibition at 1 µM [2] [%] | inhibition at 5 µM [2] [%] | Compound | inflammatory response to intradermal PAF [1]
30 to 33 | 58 to 59 | 73 to 76 | 83 to 89 | 90 to 95 | CCCC1=C[C@@]2(OC)C(=CC1=O)O[C@H](c1ccc(OC)c(OC)c1)[C@@H]2C [(2S,3S,3aS)-2-(3,4-dimethoxyphenyl)-3a-methoxy-3-methyl-5-n-propyl-2,3,3a,6-tetrahydro-6-oxo-benzofuran] | 
 |  |  | 31 | 61 | CCCC1=C[C@]2(OC)C(=CC1=O)O[C@H](c1ccc(OC)c(OC)c1)[C@@H]2C (single isomer, unassigned) | 
 |  | 42 | 68 |  | C=CCC1=C[C@@]2(OCC)C(=CC1=O)O[C@H](c1ccc(OC)c(OC)c1)[C@@H]2C [(2S,3S,3aS)-5-allyl-2-(3,4-dimethoxyphenyl)-3a-ethoxy-3-methyl-2,3,3a,6-tetrahydro-6-oxo-benzofuran] | 

Further lines, the compound ahead of its results:

Compound | inhibition at 0.03 µM ([2]; Dose 0.03 μM) [%] | inhibition at 0.1 µM ([2]; Dose 0.1 μM) [%] | inhibition at 0.3 µM [2] [%] | inhibition at 1 µM [2] [%] | inhibition at 5 µM [2] [%] | inflammatory response to intradermal PAF [1]
1-O-hexadecyl/octadecyl-2-O-acetyl-sn-glycero-3-phosphorylcholine [PAF] |  |  |  |  |  | biphasic inflammatory response
C=CCC1=C[C@]2(OCC)C(=CC1=O)O[C@H](c1ccc(OC)c(OC)c1)[C@@H]2C [(2S,3S,3aR)-5-allyl-2-(3,4-dimethoxyphenyl)-3a-ethoxy-3-methyl-2,3,3a,6-tetrahydro-6-oxo-benzofuran] |  |  |  | 45 | 73 | 
C=CCC1=C2OC(c3ccc(OC)c(OC)c3)C(C)C2(OC)C=CC1=O (centres unmarked) |  |  |  | 26 | 57 | 

From US4704462A, “Substituted 2,3,3a,6-tetrahydro-6-oxobenzofuran derivative useful as PAF antagonist” (Merck & Co., Inc., priority 1985, dated 1987)
